According to ChEMBL document CHEMBL2346579, “Structure-based approaches to ligands for G-protein-coupled adenosine and P2Y receptors, from small molecules to nanoconjugates” (J Med Chem, 2013):

Legend:
[1] = molecular target: Adenosine receptor A2a (Homo sapiens) (UniProt P29274); assay: Binding affinity to A2A adenosine receptor (unknown origin)
[2] = molecular target: Adenosine receptor A2a (Homo sapiens) (UniProt P29274); assay: Positive allosteric modulation of A2A adenosine receptor (unknown origin)
[3] = molecular target: Adenosine receptor A2a (Homo sapiens) (UniProt P29274); assay: Antagonist activity at A2A adenosine receptor (unknown origin)
[4] = molecular target: Adenosine receptor A2a (Homo sapiens) (UniProt P29274); assay: Negative allosteric modulation of A2A adenosine receptor (unknown origin)

Chain of Adenosine receptor A2a (Homo sapiens) (P29274 whole entry): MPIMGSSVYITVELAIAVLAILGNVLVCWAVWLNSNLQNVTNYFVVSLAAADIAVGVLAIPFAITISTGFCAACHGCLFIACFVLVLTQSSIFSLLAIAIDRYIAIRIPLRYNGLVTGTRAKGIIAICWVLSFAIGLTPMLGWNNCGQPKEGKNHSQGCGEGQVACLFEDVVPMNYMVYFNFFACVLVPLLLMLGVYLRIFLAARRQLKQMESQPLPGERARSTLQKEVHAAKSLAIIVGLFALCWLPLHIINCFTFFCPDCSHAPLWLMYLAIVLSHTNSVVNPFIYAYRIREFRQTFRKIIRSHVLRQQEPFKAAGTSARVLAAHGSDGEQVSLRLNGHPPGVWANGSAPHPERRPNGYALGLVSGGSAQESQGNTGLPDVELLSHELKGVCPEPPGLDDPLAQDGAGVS

## Nc1nc(-c2ccc(F)cc2)ns1
[1]
  Activity: 70 nM

## O=C(O)CCN1CCCc2ccccc21
[2]
  Activity: 2 mM

## Cc1cc(C)nc(NC(=N)NCCc2c[nH]c3ccc(F)cc23)n1
[3]
  Activity: 200 nM

## Oc1cccc(Nc2ccccc2)c1
[4]
  Activity: 2 mM

## Nc1nnc(-c2cc(C(F)(F)F)nc(C(F)(F)F)c2)c(-c2ccccc2)n1
[3]
  Activity: 30 nM
